In PubChem BioAssay AID330 (DTP/NCI, 2004) one finds T/C data, which are given here for 20 compounds.

Where “and” joins values, the source holds several entries; their conditions need not be identical. Identical values can stand only once. Toxic doses and inconclusive results are not listed.

The test system of this experiment is P388 leukemia ip, CD2F1 mice, survival T/C. Briefly: NCI In Vivo Anticancer Drug Screen. Data for tumor model P388 Leukemia (intraperitoneal) in CD2F1 (CDF1) mice. As to conditions: endpoint: median survival time, higher = longer survival. The procedure, abridged:
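Mice carrying the transplanted tumor received test compound or vehicle. Survival was recorded in each group, and the value is the treated-group measurement divided by that of the vehicle-treated control group.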

Setting [1] is: dose: 60.0 mg/kg/injection, schedule: Q01DX005 (ip), vehicle: saline with Tween-80.
Where [2] appears, read: dose: 120.0 mg/kg/injection, schedule: Q01DX005 (ip), vehicle: saline with Tween-80.
Where [3] appears, read: dose: 240.0 mg/kg/injection, schedule: Q01DX005 (ip), vehicle: saline with Tween-80.
Where [4] appears, read: dose: 50.0 mg/kg/injection, schedule: Q01DX005 (ip), vehicle: Klucel (hydroxypropylcellulose) (HPC).
Setting [5] is: dose: 100.0 mg/kg/injection, schedule: Q01DX005 (ip), vehicle: Klucel (hydroxypropylcellulose) (HPC).
The mark [6] stands for this setting: dose: 200.0 mg/kg/injection, schedule: Q01DX005 (ip), vehicle: Klucel (hydroxypropylcellulose) (HPC).
The mark [7] stands for this setting: dose: 30.0 mg/kg/injection, schedule: Q01DX005 (ip), vehicle: saline with Tween-80.
Where [8] appears, read: dose: 100.0 mg/kg/injection, schedule: Q01DX009 (ip), vehicle: saline with Tween-80.
Where [9] appears, read: dose: 200.0 mg/kg/injection, schedule: Q01DX009 (ip), vehicle: saline with Tween-80.
Setting [10] is: dose: 50.0 mg/kg/injection, schedule: Q01DX009 (ip), vehicle: saline with Tween-80.
The mark [11] stands for this setting: dose: 50.0 mg/kg/injection, schedule: Q01DX009 (ip), vehicle: Klucel (hydroxypropylcellulose) (HPC).
The mark [12] stands for this setting: dose: 100.0 mg/kg/injection, schedule: Q01DX009 (ip), vehicle: Klucel (hydroxypropylcellulose) (HPC).
Setting [13] is: dose: 200.0 mg/kg/injection, schedule: Q01DX009 (ip), vehicle: Klucel (hydroxypropylcellulose) (HPC).

Regarding `COc1cc(O)c(Cc2ccccc2O)c(O)c1C(=O)CCc1ccccc1`, the T/C runs as follows: (dose: 1.25 mg/kg/injection, schedule: Q01DX009 (ip), vehicle: saline with Tween-80) 100 % of control; (dose: 1.25 mg/kg/injection, schedule: Q01DX009 (ip), vehicle: saline) 104 % of control; (dose: 2.5 mg/kg/injection, schedule: Q01DX009 (ip), vehicle: saline with Tween-80) 105 % of control; (dose: 2.5 mg/kg/injection, schedule: Q01DX009 (ip), vehicle: saline) 104 % of control; (dose: 5.0 mg/kg/injection, schedule: Q01DX009 (ip), vehicle: saline with Tween-80) 111 % of control; (dose: 5.0 mg/kg/injection, schedule: Q01DX009 (ip), vehicle: saline) 104 % of control. Further, the T/C is, setting by setting: (dose: 10.0 mg/kg/injection, schedule: Q01DX009 (ip), vehicle: saline) 104 % of control; (dose: 20.0 mg/kg/injection, schedule: Q01DX009 (ip), vehicle: saline) 101 % of control.
`O=C1c2c(ccc3ccccc23)CN2CCCCC12` (configuration not stated): the T/C is 101 % of control under setting [1], 103 % of control under setting [2] and 103 % of control under setting [3].
Regarding `Cc1ccc(SC(=O)c2cccnc2Oc2ccccc2)cc1`, the T/C by setting is: under setting [4], 90 % of control; under setting [5], 99 % of control; under setting [6], 96 % of control.
`CCCCCCCCC1(OCCCS(=O)(=O)O)COc2ccccc2OCCOCCOc2ccccc2OC1`: the T/C by setting is: under setting [7], 96 % of control; under setting [1], 94 % of control.
For the compound `O=P(Oc1cccc2ccccc12)(N1CC1)N1CC1`, the T/C is 90 % of control (dose: 6.25 mg/kg/injection, schedule: Q01DX009 (ip), vehicle: saline); 95 % of control (dose: 12.5 mg/kg/injection, schedule: Q01DX009 (ip), vehicle: saline); 100 % of control (dose: 25.0 mg/kg/injection, schedule: Q01DX009 (ip), vehicle: saline); 177 % of control under setting [8]; 95 % of control under setting [9].
Turning to `COc1ccc2c(C)cc(N/N=C/c3cccc(C)n3)nc2c1`, the T/C runs as follows: under setting [4], 98 % of control and 104 % of control and 93 % of control; under setting [5], 105 % of control and 109 % of control and 110 % of control; under setting [6], 104 % of control and 116 % of control and 124 % of control.
As for `CCCCOc1cc(C(=O)NCCN(C)C)c2ccccc2n1`, the T/C was 104 % of control (dose: 7.5 mg/kg/injection, schedule: Q01DX005 (ip), vehicle: saline with Tween-80); 106 % of control (dose: 15.0 mg/kg/injection, schedule: Q01DX005 (ip), vehicle: saline with Tween-80); 106 % of control under setting [7].
`CCOC(=O)/C(C#N)=C(\C)c1ccccc1`: the T/C under setting [10] was 99 % of control.
For the compound `COC(=O)c1cc([O-])c2sc(C)c(C)[n+]2n1`, the T/C under setting [1] was 100 % of control, the T/C under setting [2] was 100 % of control and the T/C under setting [3] was 100 % of control.
Regarding `CNC1C(O)C(OC2C(N)CC(N)C(OC3OC(C(C)O)C(O)C(O)C3N)C2O)OCC1(C)O` (configuration not stated), the T/C reads like this: (dose: 7.5 mg/kg/injection, schedule: Q01DX005 (ip), vehicle: saline) 108 % of control; (dose: 15.0 mg/kg/injection, schedule: Q01DX005 (ip), vehicle: saline) 107 % of control; (dose: 30.0 mg/kg/injection, schedule: Q01DX005 (ip), vehicle: saline) 101 % of control.
`CC(=O)OCc1ccncc1`: the T/C reads like this: (dose: 12.5 mg/kg/injection, schedule: Q01DX009 (ip), vehicle: distilled water + Tween-80) 95 % of control; (dose: 25.0 mg/kg/injection, schedule: Q01DX009 (ip), vehicle: distilled water + Tween-80) 101 % of control; (dose: 50.0 mg/kg/injection, schedule: Q01DX009 (ip), vehicle: distilled water + Tween-80) 102 % of control; (dose: 100.0 mg/kg/injection, schedule: Q01DX009 (ip), vehicle: distilled water + Tween-80) 110 % of control; (dose: 200.0 mg/kg/injection, schedule: Q01DX009 (ip), vehicle: distilled water + Tween-80) 100 % of control; (dose: 400.0 mg/kg/injection, schedule: Q01DX009 (ip), vehicle: distilled water + Tween-80) 92 % of control.
For `C1C[O][Ge]2([O]1)[O]CC[O]2`, the T/C is 108 % of control (dose: 50.0 mg/kg/injection, schedule: Q01DX009 (ip), vehicle: saline); 101 % of control (dose: 100.0 mg/kg/injection, schedule: Q01DX009 (ip), vehicle: saline); 102 % of control (dose: 200.0 mg/kg/injection, schedule: Q01DX009 (ip), vehicle: saline).
Turning to `CCCCCCN(CCCCCC)CC(O)c1ccc2c3c(cccc13)CC2` (configuration not stated), the T/C under setting [11] was 106 % of control, the T/C under setting [12] was 102 % of control and the T/C under setting [13] was 100 % of control.
For the compound `CC1c2ccoc2CC2C1C(O)C(O)C1C(C)(C)CCCC21C` (configuration not stated), the T/C (dose: 100.0 mg/kg/injection, schedule: Q04DX002 (ip), vehicle: suspension in saline) is 106 % of control; the T/C (dose: 200.0 mg/kg/injection, schedule: Q04DX002 (ip), vehicle: suspension in saline) is 106 % of control; the T/C (dose: 400.0 mg/kg/injection, schedule: Q04DX002 (ip), vehicle: suspension in saline) is 98 % of control.
Turning to `CCN(CC)CCNc1ncnc2[nH]ncc12`, the T/C was 106 % of control (dose: 50.0 mg/kg/injection, schedule: Q01DX005 (ip), vehicle: saline) and 101 % of control (dose: 100.0 mg/kg/injection, schedule: Q01DX005 (ip), vehicle: saline).
On to `COC1/C=C/OC2(C)Oc3c(C)c(O)c4c(O)c(c(/C=N/N5C(C)CN(Cc6ccc(C)cc6)CC5C)c(O)c4c3C2=O)NC(=O)C(C)=C/C=C/C(C)C(O)C(C)C(O)C(C)C(OC(C)=O)C1C` (configuration not stated), for which the T/C runs as follows: under setting [10], 97 % of control; under setting [8], 96 % of control; under setting [9], 103 % of control.
Turning to `CC1=NCCCN(CCN(C)C)CCCN=C(C)C2CCCC1[N-]2.[Ni+2].[O-][Cl+3]([O-])([O-])O`, the T/C is, setting by setting: (dose: 6.25 mg/kg/injection, schedule: Q01DX001 (ip), vehicle: saline) 100 % of control; (dose: 12.5 mg/kg/injection, schedule: Q01DX001 (ip), vehicle: saline) 100 % of control; (dose: 25.0 mg/kg/injection, schedule: Q01DX001 (ip), vehicle: saline) 100 % of control and 102 % of control.
For `Cn1c(-c2ccccc2)nc(-c2ccccc2)[n+]1[O-]`, the T/C (dose: 60.0 mg/kg/injection, schedule: Q01DX005 (ip), vehicle: Klucel (hydroxypropylcellulose) (HPC)) was 102 % of control; the T/C (dose: 120.0 mg/kg/injection, schedule: Q01DX005 (ip), vehicle: Klucel (hydroxypropylcellulose) (HPC)) is 96 % of control; the T/C (dose: 240.0 mg/kg/injection, schedule: Q01DX005 (ip), vehicle: Klucel (hydroxypropylcellulose) (HPC)) was 95 % of control.
For `CCOc1cc2c(cc1C(CC(=O)O)c1ccc(OC)cc1)OCO2` (configuration not stated), the T/C is 101 % of control (dose: 50.0 mg/kg/injection, schedule: Q01DX005 (ip), vehicle: distilled water + Tween-80); 92 % of control (dose: 100.0 mg/kg/injection, schedule: Q01DX005 (ip), vehicle: distilled water + Tween-80); 90 % of control (dose: 200.0 mg/kg/injection, schedule: Q01DX005 (ip), vehicle: distilled water + Tween-80).
As for `COC1/C=C\OC2(C)Oc3c(C)c(O)c4c(c3C2=O)C(=O)C(Br)=C(NC(=O)/C(C)=C\C=C/C(C)C(O)C(C)C(O)C(C)C(OC(C)=O)C1C)C4=O` (configuration not stated), the T/C reads like this: (dose: 25.0 mg/kg/injection, schedule: Q01DX009 (ip), vehicle: Klucel (hydroxypropylcellulose) (HPC)) 102 % of control; under setting [11], 97 % of control; under setting [12], 102 % of control; under setting [13], 100 % of control.
